Measured values taken from patent US20250101062A1, “ANTIMICROBIAL PEPTIDES” (Board of Regents of the University of Nebraska, priority 2023, published 2025).
In brackets after ≈: the same amount, converted by molar mass. Like-named read-outs stand apart in the source and are kept apart here.

How the values were obtained:
S. aureus USA300 LAC = assay: microbe, parasite or virus in culture; assay type: cell-based, Staphylococcus aureus; details: Staphylococcus aureus
Protocol: The following resistant bacterial clinical strains were used in this study: S. aureus USA300 LAC, S. epidermidis 1457, E. coli E423-17, P. aeruginosa E411-17, K. pneumoniae E406-17, and A. baumannii B28-16. While the S. aureus USA300 strain is methicillin-resistant, most of the Gram-negative bacteria contain extended-spectrum beta-lactamase and are resistant to beta-lactam antibiotics. Peptide activity against bacteria was tested using an established lab protocol (Mishra, et al. (2017) Acta Biomater., 49:316-328). In brief, a peptide concentration gradient with twofold dilution was made in the 96-well polystyrene microplate at 10 μL per well. Bacteria were grown to the exponential phase (i.e., optical density at 600 nm≈0.5), diluted to ˜10^5 CFU/mL in different percentages of MHB, TSB, or LB, and partitioned into the 96-well microplate at 90 μL per well. […] They were diluted with autoclaved distilled water to obtain different percentages. The microplates were incubated at 37° C. overnight and read on a ChroMate™ 4300 microplate reader at 600 nm (GMI, Ramsey, MN). The peptide concentration in the wells without bacterial growth is the MIC. As is the convention, MIC values were represented as ranges.
For pH effects on peptide activity, the pH of the medium was adjusted to a targeted pH for the autoclave and then remeasured at room temperature. For salt and serum effects on peptide activity, stock NaCl solution or human serum was added to the media.
Peptide activity against bacteria were tested using the CLSI standard procedure with minor modifications (Clinical and Laboratory Standards Institute (2018) Performance standards for antimicrobial susceptibility testing, 9th ed.; Mishra, et al. (2019) Proc. Natl. Acad. Sci., 116(27):13517-13522). In brief, a peptide concentration gradient with twofold dilution was made in the 96-well polystyrene microplate at 10 μL per well. Bacteria were grown to the exponential phase (i.e., optical density at 600 nm≈0.5), diluted to ˜10^5 CFU/mL in MHB, and partitioned into the 96-well microplate at 90 μL per well. The microplates were incubated at 37° C. overnight and read on a ChroMate® 4300 Microplate Reader at 600 nm (GMI, Ramsey, MN). The peptide concentration in the wells without bacterial growth is the minimal inhibitory concentration (MIC). As the convention, MIC values were represented as ranges.
For pH effects on peptide activity, the pH of the medium was adjusted to a targeted pH for autoclave and then remeasured at room temperature. For salt and serum effects on peptide activity, stock NaCl solution or human serum were added to the media.

[1] = Effect of MHB dilution on antibacterial activity of a panel of antibiotics; assay type: cell-based; details: MHB from 100 to 12.5%
Protocol: FIGS. 2A-2D show biofilm disruption activity of human LL-37 (FIGS. 2A and 2B) and 17BIPHE2 (FIGS. 2C and 2D) against the 24 hour preformed biofilms of S. aureus USA300 LAC in different MHB media: 12.5% MHB (FIGS. 2A and 2C) and 100% MHB (FIGS. 2B and 2D). FIGS. 2E-2H show the treatment outcome of LL-37 (FIGS. 2E and 2F) and 17BIPHE2 (FIGS. 2G and 2H) against the 24-hour preformed biofilms of E. coli E423-17 in different MHB media: 12.5% MHB (FIGS. 2E and 2G) and 100% MHB (FIGS. 2F and 2H). […] Growth curves of S. aureus USA 300 LAC (FIGS. 2J-2K) and P. aeruginosa 152 (FIGS. 2L-2M) in 12.5%, 25%, 50% and 100% MHB or TSB medium (curves from bottom to top).
The effects of MHB dilution on the antimicrobial activity of a panel of antibiotics was also compared (FIG. 2I).

Question: With `CN[C@H](CC(C)C)C(=O)N[C@H]1C(=O)N[C@@H](CC(N)=O)C(=O)N[C@H]2C(=O)N[C@H]3C(=O)N[C@H](C(=O)N[C@H](C(=O)O)c4cc(O)cc(O)c4-c4cc3ccc4O)[C@H](O)c3ccc(c(Cl)c3)Oc3cc2cc(c3O[C@@H]2O[C@H](CO)[C@@H](O)[C@H](O)[C@H]2O[C@H]2C[C@](C)(N)[C@H](O)[C@H](C)O2)Oc2ccc(cc2Cl)[C@H]1O` [Vancomycin] as the compound, how does the MIC (S. aureus USA300 LAC; MRSA / USA300, pH 6.3, read-out: Antimicrobial activity (MIC), MRSA in MHB, pH 6.3) read?
Answer: The MIC was 0.5 µM (≈ 0.725 µg/mL).

Question: And the MIC (S. aureus USA300 LAC; MRSA / USA300, pH 7.2, read-out: Antimicrobial activity (MIC), MRSA in MHB, pH 7.2)?
Answer: The MIC was 0.5 µM (≈ 0.725 µg/mL).

Question: And the MIC (S. aureus USA300 LAC; MRSA / USA300, read-out: Antimicrobial activity (MIC), MRSA in MHB, 10% serum)?
Answer: The MIC was 0.5 µM (≈ 0.725 µg/mL).

Question: What about the MIC (S. aureus USA300 LAC; MRSA / USA300, read-out: Antimicrobial activity (MIC), MRSA in MHB, 20% serum) of the same compound?
Answer: Its MIC is 0.5 to 1 µM (≈ 0.725 to 1.45 µg/mL).

Question: And the MIC (S. aureus USA300 LAC; MRSA / USA300, read-out: Antimicrobial activity (MIC), MRSA in MHB, NaCl (150 mM))?
Answer: The MIC was 0.5 to 1 µM (≈ 0.725 to 1.45 µg/mL).

Question: What about the “change in MIC with dilution of MHB” value [1] of the same compound?
Answer: The value was “essentially no changes”.
